Laboratory results taken from US11382985B2, “Anti-tumour immune responses to modified self-epitopes” (Scancell Limited, priority 2015, dated 2022).
Square brackets hold non-standard residues; d marks the D form. Ends that are not written are not given here. Cit = NC(=O)NCCC[C@H](N)C(=O)O

How the values were obtained:
[1] = tested on: splenocytes; experiment: Screening of citrullinated Enolase peptide pools, ex vivo IFNγ Elispot, C57BL/6 mice; assay type: in vivo, C57BL/6 mouse; settings: single immunisation with pool of 4-6 human citrullinated peptides, 20 μg each, CpG/MPLA, day 14, label = peptide used for restimulation
Protocol: (§1) C57BL/6 mice (Charles River, UK), HLA-DR4 mice (Taconic, USA), HHDII/DR1 mice (Pasteur institute, France) and the HHD/HLA-DP4 transgenic strain of mouse as described in patent WO2013/017545 A1 (EMMA repository, France) were used, aged between 8 and 12 weeks, and cared for by the staff at Nottingham Trent University. All work was carried out under a Home Office project licence. Peptides were dissolved in PBS to 1 mg/ml and then emulsified (a series of dilutions) with different adjuvants: CpG and MPLA 6 μg/mouse of each (Invivogen, UK), Incomplete Freund's 50 μl/mouse (Sigma, UK), poly I:C 10 μg/mouse (Invivogen, UK), Imiquimod 25 μg/mouse (Invivogen, UK) and GMCSF 10 μg/mouse (Peprotech, UK). Peptides (25 μg/mouse) were injected subcutaneously at the base of the tail. DNA (1 μg/mouse) was coated onto 1.0 μm gold particles (BioRad, Hemel Hempstead, UK) using the manufacturer's instructions and administered intradermally by genegun (BioRad). Homspera (10 nM/mouse) (PeptideSynthetics, UK) was injected intradermally with genegun immunisation. Mice were immunized at either day 0 for peptide immunisation or days, 0 and 7 for genegun immunisation, unless otherwise stated. Spleens were removed for analysis at day 14 for peptide and day 20 for peptide or genegun immunisation unless stated otherwise.
(§2) Elispot assays were performed using murine IFNγ, IL-17 and IL-10 capture and detection reagents according to the manufacturer's instructions (Mabtech, Sweden). In brief, anti-IFNγ, IL-17 and IL-10 antibodies were coated onto wells of 96-well Immobilin-P plate. Synthetic peptides (at a variety of concentrations) and 5×10^5 per well splenocytes were added to the wells of the plate in triplicate. Tumour target cells were added where relevant at 5×10^4/well in triplicate and plates incubated for 40 hrs at 37° C. After incubation, captured IFN and IL-10 were detected by biotinylated anti-IFNγ and IL-10 antibodies and developed with a streptavidin alkaline phosphatase and chromogenic substrate. Spots were analysed and counted using an automated plate reader (Cellular Technologies Ltd).
(§3) Screening was performed to identify potential citrullinated Enolase epitopes in mice. Mice were immunised with pools of 4-6 human citrullinated peptides. […] Each pool was administered as a single immunisation containing 20 μg of each peptide and CpG/MPLA as an adjuvant. After 14 days the mice were culled and the immune responses to each peptide within the immunising pool were assessed by ex vivo Elispot (FIG. 2). In addition, the splenocytes were screened against the murine equivalent sequences. We have previously shown that citrullinated peptides can induce responses in the transgenic DR4 mouse strain. Given that different mouse strains have different MHC repertoires a number of strains were used for screening. Peptide responses were assessed in C57BL/6 mice as well as transgenic strains expressing human DR4 or HHD/DR1 in a C57BL/6 background (see materials and methods).

[2] = tested on: splenocytes; experiment: Peptide immunisation and ex vivo Elispot, DR4 mice; assay type: in vivo, HLA-DR4 transgenic mouse; settings: for IFNγ response to the human sequence / IFNγ response to the mouse sequence: single immunisation of the human citrullinated peptide; for IFNγ response to 15mer peptide spanning 241-260: label = 15mer used for restimulation
Protocol: as §1, §2

[3] = tested on: splenocytes; experiment: Peptide immunisation and ex vivo Elispot, C57Bl/6 mice; assay type: in vivo, C57Bl/6 mouse; settings: C57Bl/6 mice immunised with the human citrullinated peptide
Protocol: as §1, §2

[4] = tested on: splenocytes; experiment: Screening of citrullinated Enolase peptide pools, ex vivo IFNγ Elispot, HHD/DR1 mice; assay type: in vivo, transgenic HHD/DR1 mouse; settings: single immunisation with pool of 4-6 human citrullinated peptides, 20 μg each, CpG/MPLA, day 14, label = peptide used for restimulation
Protocol: as §1, §2, §3

[5] = tested on: splenocytes; experiment: Peptide immunisation and ex vivo Elispot, DR1/HHD mice; assay type: in vivo, HHD/DR1 transgenic mouse; settings: single immunisation of the human citrullinated peptide
Protocol: as §1, §2

[6] = tested on: splenocytes; experiment: Screening of citrullinated Enolase peptide pools, ex vivo IFNγ Elispot, DR4 mice; assay type: in vivo, transgenic DR4 mouse; settings: single immunisation with pool of 4-6 human citrullinated peptides, 20 μg each, CpG/MPLA, day 14, label = peptide used for restimulation
Protocol: C57BL/6 mice (Charles River, UK), HLA-DR4 mice (Taconic, USA), HHDII/DR1 mice (Pasteur institute, France) and the HHD/HLA-DP4 transgenic strain of mouse as described in patent WO2013/017545 A1 (EMMA repository, France) were used, aged between 8 and 12 weeks, and cared for by the staff at Nottingham Trent University. All work was carried out under a Home Office project licence. Peptides were dissolved in PBS to 1 mg/ml and then emulsified (a series of dilutions) with different adjuvants: CpG and MPLA 6 μg/mouse of each (Invivogen, UK), Incomplete Freund's 50 μl/mouse (Sigma, UK), poly I:C 10 μg/mouse (Invivogen, UK), Imiquimod 25 μg/mouse (Invivogen, UK) and GMCSF 10 μg/mouse (Peprotech, UK). […]
Elispot assays were performed using murine IFNγ, IL-17 and IL-10 capture and detection reagents according to the manufacturer's instructions (Mabtech, Sweden). […] After incubation, captured IFN and IL-10 were detected by biotinylated anti-IFNγ and IL-10 antibodies and developed with a streptavidin alkaline phosphatase and chromogenic substrate. Spots were analysed and counted using an automated plate reader (Cellular Technologies Ltd).
Screening was performed to identify potential citrullinated Enolase epitopes in mice. […] After 14 days the mice were culled and the immune responses to each peptide within the immunising pool were assessed by ex vivo Elispot (FIG. 2). […]

[7] = tested on: splenocytes; experiment: Peptide immunisation and ex vivo Elispot, DP4 mice; assay type: in vivo, HHD/HLA-DP4 transgenic mouse
Protocol: as §1, §2

[8] = DR4 mice immunised with human 241cit

**Q.** How did the “IFNγ response to peptide compared to media” value [1] turn out when “EVDLFTSKGLF-CIT-AAVPSGAS [Enolase 21cit]” was run?
**A.** significant response

**Q.** And the “IFNγ response to the human sequence” value ([2]; DR4 mice)?
**A.** not

**Q.** And the “IFNγ response to the mouse sequence” value ([2]; DR4 mice)?
**A.** low level but significant response

**Q.** What about the “IFNγ response in presence of CD4 blocking antibody” value [3] of the same substance?
**A.** efficiently blocked

**Q.** What about the “IFNγ response in presence of CD8 blocking antibody” value [3] of the same substance?
**A.** not

**Q.** What about the “IFNγ response to the citrullinated peptide” value [3] of the same substance?
**A.** strong IFNγ responses

**Q.** EVDLYTAKGLF-CIT-AAVPSGAS [mouse 21cit] was tested. Which “IFNγ response to peptide compared to media” value [1] did it give?
**A.** not

**Q.** For FKSPDDPS-CIT-YISPDQLADLY [human 261cit], which “IFNγ response to peptide compared to media” value [1] is on record?
**A.** significant response

**Q.** FKSPDDPS-CIT-YITPDQLADLY [mouse 261cit] was tested. Which “IFNγ response to peptide compared to media” value [1] did it give?
**A.** not

**Q.** What does the source list for IFDScitGNPTVEVDLF [enolase 11cit]?
**A.** IFN response to the equivalent murine sequence [3]: cross reacted; IFNγ response in presence of CD4 blocking antibody [3]: abrogated the response; IFNγ response in presence of CD8 blocking antibody [3]: no effect; IFNγ response to the citrullinated peptide [3]: IFN responses; IFNγ response to the wt peptide [3]: minimal reactivity; IL-10 response to the citrullinated peptide [3]: No IL-10 responses

**Q.** For KGVPLY-CIT-HIADLAGNPEVIL [mouse 126cit], which “IFNγ response to peptide compared to media” value [4] is on record?
**A.** not

**Q.** What about the “IFNγ response to peptide compared to media” value [1] of the same substance?
**A.** significant response

**Q.** What does the source list for “KGVPLY-CIT-HIADLAGNSEVIL [Enolase 126cit]”?
**A.** IFNγ response to peptide compared to media [4]: significant response; IFNγ response to peptide compared to media [1]: not; IFNγ response to the human sequence ([2]; DR4 mice): low level significant response; IFNγ response to the human sequence [5]: not

**Q.** Which “IFNγ response to peptide compared to media” value [4] does the source give for MSILKIHA-CIT-EIFDSRGNPTV [Enolase 1-20] here?
**A.** did not induced a significant response

**Q.** How did the “IFNγ response to peptide compared to media” value [4] turn out when MSILRIHA-CIT-EIFDSRGNPTV [mouse 1cit] was run?
**A.** did induce a response

**Q.** VGDDLTVTNPK-CIT-IAKAASEK [mouse 316cit] was tested. Which “IFNγ response to peptide compared to media” value [4] did it give?
**A.** not

**Q.** With “VGDDLTVTNPK-CIT-IAKAVNEK [Enolase 316cit]” as the substance, how does the “IFNγ response to peptide compared to media” value [4] read?
**A.** significant response

**Q.** And the “IFNγ response to the human sequence” value ([2]; DR4 mice)?
**A.** moderate response

**Q.** And the “IFNγ response to the mouse sequence” value ([2]; DR4 mice)?
**A.** not

**Q.** And the “IFNγ response to the human sequence” value [5]?
**A.** moderate response

**Q.** And the “IFNγ response to the mouse sequence” value [5]?
**A.** not

**Q.** “VIGMDVAASEFY-CIT-SGKYDLD (VIGMDVAASEFY[Cit]SGKYDLD) [mouse 241cit]” was tested. Which “IFNγ response to peptide compared to media” value [6] did it give?
**A.** significant response

**Q.** And the “IFNγ response in presence of human MHC class II blocking antibody (L243)” value ([2]; DR4 mice immunised with human 241cit, label = restimulating peptide)?
**A.** significantly reduced

**Q.** What about the “time after immunisation at which IFNγ response is detectable” value ([2]; DR4 mice, single dose in CpG/MPLA, sacrificed after 2, 6 or 14 days) of the same substance?
**A.** 2 days

**Q.** What about the “IFNγ response compared to the wild type peptides” value ([7]; DP4 mice, three doses of human Enolase 241cit, label = restimulating peptide) of the same substance?
**A.** increased IFNγ responses

**Q.** What about the “IFNγ responses to citrullinated and wildtype peptide” value ([7]; DP4 transgenic mice immunised with the murine peptide, three doses) of the same substance?
**A.** specific to the citrullinated peptide but not the wildtype

**Q.** Which “IFNγ response to 15mer peptide spanning 241-260” value [2, 8] does the source give for “aa241-255: 15mer peptide spanning the Enolase 241-260 sequence (VIGMDVAASEFFRSG; UniProt P06733 241-255, looked up, fragment)” here?
**A.** stimulating specific responses

**Q.** “aa246-260: 15mer peptide spanning the Enolase 241-260 sequence (VAASEFFRSGKYDLD; UniProt P06733 246-260, looked up, fragment)” was tested. Which “IFNγ response to 15mer peptide spanning 241-260” value [2, 8] did it give?
**A.** no response
